# From patent publication US7598092B2, “Methods, devices, systems and computer program products for stochastic, competitive, force-based analyte detection” (priority 2006, dated 2009)
# Read-outs that look alike come from different tables or passages of the source.
# Columns and labels:
# [1] = target: streptavidin (Streptomyces avidinii, UniProt P22629); settings: cited from earlier work
# [2] = target: Avidin (Gallus gallus, UniProt P02701); settings: cited from earlier work
# [3] = target: Murine galectin 3 (Mus musculus, UniProt P16110); settings: Gaussian fit of 10 pN bins
# Murine galectin 3, sequence (P16110 whole entry): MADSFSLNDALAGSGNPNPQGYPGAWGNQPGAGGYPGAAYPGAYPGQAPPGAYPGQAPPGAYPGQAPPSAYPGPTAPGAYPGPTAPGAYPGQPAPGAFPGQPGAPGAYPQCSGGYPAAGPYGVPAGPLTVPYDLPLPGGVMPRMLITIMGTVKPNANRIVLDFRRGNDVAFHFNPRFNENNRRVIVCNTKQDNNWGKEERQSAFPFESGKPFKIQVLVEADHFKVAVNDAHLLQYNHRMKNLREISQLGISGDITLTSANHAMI
# [4] = target: galectin 3 (Mus musculus, UniProt P16110); assay: isothermal titration calorimetry of soluble ligand binding to galectin 3; design: species or system Murine
# galectin 3, sequence (P16110 whole entry): as above
# Avidin, sequence (P02701 25-152): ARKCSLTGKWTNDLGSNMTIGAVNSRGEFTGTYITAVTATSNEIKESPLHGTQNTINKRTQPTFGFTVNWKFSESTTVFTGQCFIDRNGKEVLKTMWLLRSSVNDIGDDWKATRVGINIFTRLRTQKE
# streptavidin, sequence (P22629 25-183): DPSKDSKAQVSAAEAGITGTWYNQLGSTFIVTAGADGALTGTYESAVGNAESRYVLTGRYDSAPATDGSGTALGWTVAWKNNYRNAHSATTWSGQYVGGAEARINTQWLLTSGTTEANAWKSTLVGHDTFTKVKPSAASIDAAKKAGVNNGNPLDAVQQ
smiles,measurement,setting,value
"O=C(O)CCCC[C@@H]1SC[C@@H]2NC(=O)N[C@@H]21 [biotin, Biotin]",Ka,[1],~10^14 M^−1
same,Ka,[2],10^13-10^15 M^−1
OC[C@H]1O[C@@H](O[C@H]2[C@H](O)[C@@H](O)C(O)O[C@@H]2CO)[C@H](O)[C@@H](O)[C@H]1O (some centres unmarked) [lactose],average rupture force,[3]; Fe^3+ surface immobilization of galectin 3,71 pN
same,average rupture force,[3]; Ni^2+ surface immobilization of galectin 3,72 pN
CO[C@@H]1O[C@H](CO)[C@@H](O[C@@H]2O[C@H](CO)[C@H](O)[C@H](O)[C@H]2O)[C@H](O)[C@H]1O [β-methyl lactoside],"association constant, the affinity measured by isothermal titration calorimetry",[4],6400±100
